Results published in patent publication EP0099673A2, “Prostaglandin D derivatives, process for their preparation and compositions containing them” (ONO PHARMACEUTICAL CO., LTD., priority 1982, dated 1984).

Tested on: human myelogenous leukemic cells (HL-60)
Assay: Test on inhibition of proliferation using human myelogenous leukemic cells (HL-60)
Type: cell-based
Conditions: for Percentage Inhibition: HL-60, compound at 5 pg/ml, 4 days at 37 C, relative to control (0.1% ethanol); for Surviving Cell Number: HL-60, start 1 x 10^5 cells/ml, compound at 5 pg/ml, stationary culture at 37 C for 4 days, Trypan Blue staining, control 29.4 x 10^4
Procedure: rest on Inhibition of Proliferation Using Human Myeloqenous Leukemic Cells (HL-60)
The test on the inhibition of proliferation of human myelogenous leukemic cells was conducted by a well-known method. The human myelogenous leukemic cells (HL-60) were added to an RPMI culture solution containing 10% bovine fetal serum, the number of cells in the culture solution was adjusted to 1 x 10^5 cells/ml, a solution in ethanol of the compound under test was added to give a concentration of 5 pg/ml, and the mixture was subjected to stationary culture at 37 C for 4 days. As a control, a culture solution to which 0.1% of ethanol had been added was similarly cultured. After the cultivation, the culture solutions were stained by the Trypan Blue staining method and the surviving cell number was measured to determine the percentage inhibition relative to the control.

CCCCCC=CC=C1C(=O)C[C@H](O)[C@@H]1CC(=O)CCCCC(=O)OC [(12EZ,14EZ)-(9α)-6,11-Dioxo-9-hydroxyprosta-12,14-dienoic acid methyl ester]
Percentage Inhibition: 100% | Surviving Cell Number: 0 cells/ml

CCCCCC=CC=C1C(=O)C=C[C@@H]1CC(=O)CCCCC(=O)OC [Methyl (9Z,12EZ,14EZ)-6,11-dioxoprosta-9,12,14-trienoate]
Percentage Inhibition: 100% | Surviving Cell Number: 0 cells/ml

Methyl (13E)-(9α,15S)-6,11-dioxo-9,15- dihvdroxvprost-13-enoate [6-Keto-PGD1 methyl ester]
Percentage Inhibition: 100% | Surviving Cell Number: 0 cells/ml
